Assay results as given in patent US20220073536A1 (Rigel Pharmaceuticals, Inc., priority 2003, published 2022).
Where two headings read alike, the source gives them in different places.

System: cultured human mast cells (CHMC)
Experiment: CHMC low cell density IgE activation: tryptase assay
Format: cell-based
Details: low cell density CHMC, IgE activation
Method in brief: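 Anti-IgE-driven degranulation of cultured human mast cells at low density, 1000–1500 cells/well, was induced over 30 min at 37 °C. It was scored by supernatant tryptase activity on a fluorogenic substrate.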

[1] = tryptase readout, 8 pt, read-out: LD Tryptase, CHMC, IgE, 8 pt
[2] = Homo sapiens, Mast cell, tryptase readout, 3 pt, read-out: LD Tryptase, CHMC, IgE, 3 pt
[3] = tryptase readout, 3 pt, read-out: LD Tryptase, CHMC, IgE, 3 pt
[4] = Homo sapiens, Mast cell, tryptase, 3 pt, read-out: LD Tryptase, CHMC, IgE, 3 pt
[5] = tryptase, 8 pt, read-out: LD Tryptase, CHMC, IgE, 8 pt
[6] = tryptase, 3 pt, read-out: LD Tryptase, CHMC, IgE, 3 pt

**Q.** For COc1cccc(Nc2ncc(F)c(Nc3ccc4c(n3)NC(=O)CO4)n2)c1C [Compound 1061, 5-Fluoro-N2-(3-methoxy-2-methylphenyl)-N4-(3-oxo-2H,4H-5-pyrid[1,4]oxazin-6-yl)-2,4-pyrimidinediamine], which IC50 [1] is on record?
**A.** < 10 µM

**Q.** How did the IC50 [2] turn out when COc1cccc(Nc2ncc(F)c(Nc3ccc4c(c3)NC(=O)C(C)(C)O4)n2)c1C [Compound 1062, N4-(2,2-Dimethyl-3-oxo-4H-benz[1,4]oxazin-6-yl)-5-fluoro-N2-(3-methoxy-2-methylphenyl)-2,4-pyrimidinediamine] was run?
**A.** < 10 µM

**Q.** With Cc1c(O)cccc1Nc1ncc(F)c(Nc2ccc3c(n2)NC(=O)CO3)n1 [Compound 1063, 5-Fluoro-N2-(3-hydroxy-2-methylphenyl)-N4-(3-oxo-2H,4H-5-pyrid[1,4]oxazin-6-yl)-2,4-pyrimidinediamine] as the compound, how does the IC50 [1] read?
**A.** < 10 µM

**Q.** Cc1c(O)cccc1Nc1ncc(F)c(Nc2ccc3c(n2)NC(=O)C(C)(C)O3)n1 [Compound 1064, N4-(2,2-Dimethyl-3-oxo-4H-5-pyrid[1,4]oxazin-6-yl)-5-fluoro-N2-(3-hydroxy-2-methylphenyl)-2,4-pyrimidinediamine] was tested. Which IC50 [1] did it give?
**A.** < 10 µM

**Q.** How did the IC50 [3] turn out when COc1cccc(Nc2ncc(F)c(Nc3ccc4c(n3)NC(=O)C(C)(C)O4)n2)c1C [Compound 1065, N4-(2,2-Dimethyl-3-oxo-4H-5-pyrid[1,4]oxazin-6-yl)-5-fluoro-N2-(3-methoxy-2-methylphenyl)-2,4-pyrimidinediamine] was run?
**A.** < 10 µM

**Q.** COC(=O)COc1cccc(Nc2ncc(F)c(Nc3ccc4c(c3)NC(=O)C(C)(C)O4)n2)c1C [Compound 1066, N4-(2,2-Dimethyl-3-oxo-4H-benz[1,4]oxazin-6-yl)-5-fluoro-N2-[3-methoxycarbonylmethyleneoxy-2-methylphenyl]-2,4-pyrimidinediamine] was tested. Which IC50 [3] did it give?
**A.** < 10 µM

**Q.** Which IC50 [1] does the source give for CNC(=O)COc1cccc(Nc2ncc(F)c(Nc3ccc4c(c3)NC(=O)C(C)(C)O4)n2)c1C [Compound 1067, N4-(2,2-Dimethyl-3-oxo-4H-benz[1,4]oxazin-6-yl)-5-fluoro-N2-[2-methyl-3-(N-methylamino)carbonylmethyleneoxyphenyl]-2,4-pyrimidinediamine] here?
**A.** < 10 µM

**Q.** For CNC(=O)COc1cccc(Nc2ncc(F)c(Nc3ccc4c(n3)NC(=O)CO4)n2)c1C [Compound 1068, 5-Fluoro-N2-[2-methyl-3-(N-methylamino)carbonylmethyleneoxyphenyl]-N4-(3-oxo-2H,4H-5-pyrid[1,4]oxazin-6-yl)-2,4-pyrimidinediamine], which IC50 [1] is on record?
**A.** < 10 µM

**Q.** With Cc1cc(Nc2ncc(F)c(Nc3ccc4c(n3)NC(=O)CO4)n2)cc(C)c1O [Compound 1069, N2-(3,5-Dimethyl-4-hydroxyphenyl)-5-fluoro-N4-(3-oxo-2H,4H-5-pyrid[1,4]oxazin-6-yl)-2,4-pyrimidinediamine] as the compound, how does the IC50 [1] read?
**A.** < 10 µM

**Q.** CCOC(=O)N1CCN(c2cccc(Nc3ncc(F)c(Nc4ccc5c(n4)NC(=O)CO5)n3)c2)CC1 [Compound 1070, N2-[3-(4-Ethoxycarbonylpiperazino)phenyl]-5-fluoro-N4-(3-oxo-2H,4H-5-pyrid[1,4]oxazin-6-yl)-2,4-pyrimidinediamine] was tested. Which IC50 [1] did it give?
**A.** < 10 µM

**Q.** For CC(=O)N1CCN(c2cccc(Nc3ncc(F)c(Nc4ccc5c(n4)NC(=O)CO5)n3)c2)CC1 [Compound 1071, N2-[3-(4-Acetylpiperazino)phenyl]-5-fluoro-N4-(3-oxo-2H,4H-5-pyrid[1,4]oxazin-6-yl)-2,4-pyrimidinediamine], which IC50 [1] is on record?
**A.** < 10 µM

**Q.** With CCOC(=O)N1CCN(c2ccc(Nc3ncc(F)c(Nc4ccc5c(n4)NC(=O)CO5)n3)cc2)CC1 [Compound 1072, N2-[4-(4-Ethoxycarbonylpiperazino)phenyl]-5-fluoro-N4-(3-oxo-2H,4H-5-pyrid[1,4]oxazin-6-yl)-2,4-pyrimidinediamine] as the compound, how does the IC50 [1] read?
**A.** < 10 µM

**Q.** For O=C1COc2ccc(Nc3nc(Nc4cccc(N5CCOCC5)c4)ncc3F)nc2N1 [Compound 1073, 5-Fluoro-N2-(3-morpholinophenyl)-N4-(3-oxo-2H,4H-5-pyrid[1,4]oxazin-6-yl)-2,4-pyrimidinediamine], which IC50 [1] is on record?
**A.** < 10 µM

**Q.** For CN1CCN(c2cccc(Nc3ncc(F)c(Nc4ccc5c(n4)NC(=O)CO5)n3)c2)CC1 [Compound 1074, 5-Fluoro-N2-[3-(4-methylpiperazino)phenyl]-N4-(3-oxo-2H,4H-5-pyrid[1,4]oxazin-6-yl)-2,4-pyrimidinediamine], which IC50 [1] is on record?
**A.** < 10 µM

**Q.** For CCOC(=O)N1CCN(c2cccc(Nc3ncc(F)c(Nc4ccc5c(n4)NC(=O)C(C)(C)O5)n3)c2)CC1 [Compound 1075, N4-(2,2-Dimethyl-3-oxo-4H-5-pyrid[1,4]oxazin-6-yl)-N2-[3-(4-ethoxycarbonylpiperazino)phenyl]-5-fluoro-2,4-pyrimidinediamine], which IC50 [1] is on record?
**A.** < 10 µM

**Q.** For CC(=O)N1CCN(c2cccc(Nc3ncc(F)c(Nc4ccc5c(n4)NC(=O)C(C)(C)O5)n3)c2)CC1 [Compound 1076, N2-[3-(4-Acetylpiperazino)phenyl]-N4-(2,2-dimethyl-3-oxo-4H-5-pyrid[1,4]oxazin-6-yl)-5-fluoro-2,4-pyrimidinediamine], which IC50 [1] is on record?
**A.** < 10 µM

**Q.** How did the IC50 [1] turn out when CCOC(=O)N1CCN(c2ccc(Nc3ncc(F)c(Nc4ccc5c(n4)NC(=O)C(C)(C)O5)n3)cc2)CC1 [Compound 1077, N4-(2,2-Dimethyl-3-oxo-4H-5-pyrid [1,4]oxazin-6-yl)-N2-[4-(4-ethoxycarbonylpiperazino)phenyl]-5-fluoro-2,4-pyrimidinediamine] was run?
**A.** < 10 µM

**Q.** For CC1(C)Oc2ccc(Nc3nc(Nc4cccc(N5CCOCC5)c4)ncc3F)nc2NC1=O [Compound 1078, N4-(2,2-Dimethyl-3-oxo-4H-5-pyrid[1,4]oxazin-6-yl)-5-fluoro-N2-(3-morpholinophenyl)-2,4-pyrimidinediamine], which IC50 [1] is on record?
**A.** < 10 µM

**Q.** Which IC50 [1] does the source give for CNC(=O)COc1cccc(Nc2ncc(F)c(Nc3ccc4c(n3)NC(=O)C(C)(C)O4)n2)c1C [Compound 1079, N4-(2,2-Dimethyl-3-oxo-4H-5-pyrid [1,4]oxazin-6-yl)-5-fluoro-N2-[2-methyl-3-(N-methylamino)carbonylmethyleneoxyphenyl]-2,4-pyrimidinediamine] here?
**A.** < 10 µM

**Q.** For CN1CCN(c2cccc(Nc3ncc(F)c(Nc4ccc5c(n4)NC(=O)C(C)(C)O5)n3)c2)CC1 [Compound 1080, N4-(2,2-Dimethyl-3-oxo-4H-5-pyrid [1,4]oxazin-6-yl)-5-fluoro-N2-[3-(4-methylpiperazino)phenyl]-2,4-pyrimidinediamine], which IC50 [1] is on record?
**A.** < 10 µM

**Q.** What does the source list for COc1ccc(Nc2ncc(F)c(Nc3ccc4c(n3)NC(=O)[C@H](C)O4)n2)cc1Cl [Compound 1081, (S)-N2-(3-Chloro-4-methoxyphenyl)-5-fluoro-N4-(2-methyl-3-oxo-2H,4H-5-pyrid[1,4]oxazin-6-yl)-2,4-pyrimidinediamine]?
**A.** IC50 [3]: < 10 µM; IC50 [1]: < 10 µM

**Q.** How did the IC50 [3] turn out when COc1cc(Nc2ncc(F)c(Nc3ccc4c(n3)NC(=O)[C@H](C)O4)n2)cc(OC)c1OC [Compound 1082, (S)-5-Fluoro-N4-(2-methyl-3-oxo-2H,4H-5-pyrid[1,4]oxazin-6-yl)-N2-(3,4,5-trimethoxyphenyl)-2,4-pyrimidinediamine] was run?
**A.** < 10 µM

**Q.** What about the IC50 [1] of the same compound?
**A.** < 10 µM

**Q.** Which IC50 [2] does the source give for O=C1COc2ccc(Nc3ncc(F)c(Nc4ccc5c(c4)NC(=O)CO5)n3)cc2N1 [Compound 1083, N2,N4-Bis (3-oxo-2H,4H-benz[1,4]oxazin-6-yl)-5-fluoro-2,4-pyrimidinediamine] here?
**A.** < 10 µM

**Q.** And the IC50 (Homo sapiens, Mast cell, tryptase readout, 8 pt, read-out: LD Tryptase, CHMC, IgE, 8 pt)?
**A.** < 10 µM

**Q.** Which results are given for Cc1cc(C)cc(Nc2ncc(F)c(Nc3ccc4c(n3)NC(=O)[C@H](C)O4)n2)c1 [Compound 1084, (S)-N2-(3,5-Dimethylphenyl)-5-fluoro-N4-(2-methyl-3-oxo-2H,4H-5-pyrid[1,4]oxazin-6-yl)-2,4-pyrimidinediamine]?
**A.** IC50 [3]: > 10 µM; IC50 [1]: < 10 µM

**Q.** Which IC50 [4] does the source give for CCOC(=O)N1CCN(c2cccc(Nc3ncc(F)c(NC4CN(C(=O)OC(C)(C)C)C4)n3)c2)CC1 [Compound 1129] here?
**A.** > 10 µM

**Q.** With CCOC(=O)N1CCN(c2cccc(Nc3ncc(F)c(NC4CNC4)n3)c2)CC1 [Compound 1130] as the compound, how does the IC50 [4] read?
**A.** > 10 µM

**Q.** With CN1CCN(c2ccc(Nc3ncc(F)c(NC4CNC4)n3)cc2)CC1 [Compound 1131] as the compound, how does the IC50 [4] read?
**A.** > 10 µM

**Q.** How did the IC50 [5] turn out when Fc1cnc(Nc2cccc(-c3cnco3)c2)nc1Nc1ccc2c(n1)NCCO2 [Compound 1132, N4-(3,4-Dihydro-2H,4H-5-pyrid[1,4]oxazin-6-yl)-5-fluoro-N2-[3-(oxazol-5-yl)phenyl]-2,4-pyrimidinediamine] was run?
**A.** < 10 µM

**Q.** CN(c1nc(Cl)ncc1F)C1CCC1 [Compound 1133, 2-Chloro-N4-cyclobutyl-5-fluoro-N4-methyl-4-pyrimidineamine] was tested. Which IC50 [4] did it give?
**A.** > 10 µM

**Q.** What does the source list for CC(=O)N1CCN(c2ccc(Nc3ncc(F)c(Nc4ccc5c(n4)NCCO5)n3)cc2)CC1 [Compound 1134, N2-[4-(4-Acetylpiperazino)phenyl]-N4-(3,4-dihydro-2H,4H-5-pyrid[1,4]oxazin-6-yl)-5-fluoro-2,4-pyrimidinediamine]?
**A.** IC50 [6]: < 10 µM; IC50 [5]: < 10 µM

**Q.** CCOC(=O)N1CCN(c2ccc(Nc3ncc(F)c(Nc4ccc5c(n4)NCCO5)n3)cc2)CC1 [Compound 1135, N4-(3,4-Dihydro-2H,4H-5-pyrid[1,4]oxazin-6-yl)-N2-[4-(4-ethoxycarbonylpiperazino)phenyl]-5-fluoro-2,4-pyrimidinediamine] was tested. Which IC50 [6] did it give?
**A.** < 10 µM

**Q.** And the IC50 [5]?
**A.** < 10 µM

**Q.** With Fc1cnc(Nc2cccc(N3CCOCC3)c2)nc1Nc1ccc2c(n1)NCCO2 [Compound 1136, N4-(3,4-Dihydro-2H,4H-5-pyrid[1,4]oxazin-6-yl)-5-fluoro-N2-(3-morpholinophenyl)-2,4-pyrimidinediamine] as the compound, how does the IC50 [6] read?
**A.** < 10 µM

**Q.** What about the IC50 [5] of the same compound?
**A.** < 10 µM
